Measured values taken from patent US20250320213A1, “Nitrogen-Containing Heterocyclic Compounds” (Pfizer Inc., priority 2024, published 2025).
Like-named read-outs stand apart in the source and are kept apart here.

Assays:
[1] = system: CCL17 secretion in peripheral human whole blood; assay: Human Whole Blood (HWB) CCL17 TR-FRET Assay (IL-13 stimulated CCL17 secretion); assay type: cell-based
Outline: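 TR-FRET sandwich immunoassay (665/615 nm ratio) read CCL17 in serum from heparinized whole blood after 16 h RT detection. Blood was exposed to compound for 2 h at 37 °C, then to 10 ng/mL IL-13 (final) for 48 h. IC50 from 11-point, 3-fold titrations in duplicate.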

[2] = target: T1, STAT6 (Homo sapiens, UniProt P42226); assay: STAT6 Reporter Luciferase Assay (IL-13 stimulated HaCaT keratinocyte NanoLuc reporter cells); assay type: cell-based; conditions: read-out: Reporter EC50
T1 construct: stably transfected HaCaT keratinocyte cell line, which expresses NanoLuc luciferase reporter gene under the transcriptional control of the STAT6 responsive promoter; endogenous in cells; host or cells: HaCaT keratinocyte reporter cell line (stably transfected with a NanoLuc reporter)
T1 sequence (P42226 1-847): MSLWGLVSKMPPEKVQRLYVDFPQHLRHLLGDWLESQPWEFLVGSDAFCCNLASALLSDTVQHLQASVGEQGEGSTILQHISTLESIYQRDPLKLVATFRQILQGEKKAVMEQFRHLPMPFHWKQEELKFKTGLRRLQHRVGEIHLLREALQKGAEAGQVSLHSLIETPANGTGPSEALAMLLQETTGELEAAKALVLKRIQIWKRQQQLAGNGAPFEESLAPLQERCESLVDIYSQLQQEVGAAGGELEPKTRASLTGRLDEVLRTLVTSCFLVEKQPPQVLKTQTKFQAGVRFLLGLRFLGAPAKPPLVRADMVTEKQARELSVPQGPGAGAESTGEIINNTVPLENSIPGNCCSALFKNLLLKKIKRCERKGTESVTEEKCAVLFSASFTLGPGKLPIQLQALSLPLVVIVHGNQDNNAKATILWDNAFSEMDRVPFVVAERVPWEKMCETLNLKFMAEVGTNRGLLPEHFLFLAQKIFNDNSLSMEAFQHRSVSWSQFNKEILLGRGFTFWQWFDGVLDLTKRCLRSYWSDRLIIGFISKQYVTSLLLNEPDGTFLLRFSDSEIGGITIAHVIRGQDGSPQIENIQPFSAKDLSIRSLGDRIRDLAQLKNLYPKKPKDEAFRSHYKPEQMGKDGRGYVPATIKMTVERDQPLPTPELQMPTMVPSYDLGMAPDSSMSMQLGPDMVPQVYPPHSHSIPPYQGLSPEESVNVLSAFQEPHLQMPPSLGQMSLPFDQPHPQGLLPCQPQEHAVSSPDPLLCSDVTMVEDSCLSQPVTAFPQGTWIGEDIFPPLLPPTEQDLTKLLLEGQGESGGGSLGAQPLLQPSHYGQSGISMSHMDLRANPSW
Outline: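 IL-13 (0.12 nM, 4 h) stimulated STAT6 reporter activity in HaCaT cells after a 2 h compound pre-incubation; NanoLuc signal was measured.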

[3] = Homo sapiens, 48 h, human whole blood, 10 ng/mL IL13, 48 hours
[4] = IL-13 stimulated HaCaT STAT6 NanoLuc reporter cells
[5] = Homo sapiens, 48 h, human whole blood, IL-13 stimulated
[6] = Homo sapiens, 48 h, inhibition of CCL17 secretion in human whole blood, 10 ng/mL IL13, 48 hours
[7] = STAT6 NanoLuc luciferase reporter, IL-13 stimulated HaCaT keratinocyte cells
[8] = human whole blood, IL-13 stimulated, 48 hours

Row | SMILES | EC50 [2, 4] [nM] | IC50 [1, 5] [nM] | IC50 [1, 6] [nM] | EC50 [2, 7] [nM] | other results
1 | CNC(=O)c1ccc(CNC(=O)c2nn(C(C)C)c3c2CN(c2ccc(C(=O)N(C)C)cn2)[C@@H](C)C3)cc1 [Example 540, (S)-5-(5-(dimethylcarbamoyl)pyridin-2-yl)-1-isopropyl-6-methyl-N-(4-(methylcarbamoyl)benzyl)-4,5,6,7-tetrahydro-1H-pyrazolo[4,3-c]pyridine-3-carboxamide] | 27 | – | – | – | IC50 [1, 3]: 76 nM
2 | CC(C)n1nc(C(=O)NCc2ccc(NC(=O)N(C)C)cc2)c2c1C(O)CN(c1ccc(C(=O)N(C)C)cn1)C2 (centres unmarked) [Example 473, 5-(5-(dimethylcarbamoyl)pyridin-2-yl)-N-(4-(3,3-dimethylureido)benzyl)-7-hydroxy-1-isopropyl-4,5,6,7-tetrahydro-1H-pyrazolo[4,3-c]pyridine-3-carboxamide] | 0.3 | 5 | – | – | –
3 | CC1CN(c2ccc(C(=O)N(C)C)cn2)Cc2c1nn1c2C(=O)N(Cc2ccc(NC(=O)N(C)C)cc2)CC1 (single isomer, unassigned) [Example 280, rel-(R or S)-6-(9-(4-(3,3-dimethylureido)benzyl)-4-methyl-10-oxo-3,4,7,8,9,10-hexahydropyrido[4′,3′:3,4]pyrazolo[1,5-alpyrazin-2(1H)-yl)-N,N-dimethylnicotinamide] | 10 | 134 | – | – | –
4 | CC(C)n1nc(C(=O)NCc2ccc(NC(=O)N(C)C)cc2)c2c1[C@@H](C)CN(c1ncc(N3CCCC3=O)cn1)C2 [Example 486, (S)-N-(4-(3,3-dimethylureido)benzyl)-1-isopropyl-7-methyl-5-(5-(2-oxopyrrolidin-1-yl)pyrimidin-2-yl)-4,5,6,7-tetrahydro-1H-pyrazolo[4,3-c]pyridine-3-carboxamide] | 2 | 11 | – | – | –
5 | CC(C)n1nc(C(=O)NCc2ccc(NC(=O)N(C)C)cc2)c2c1CCN(c1ccc(N3C(=O)OCC3CO)cn1)C2 (centres unmarked) [Example 110, N-(4-(3,3-dimethylureido)benzyl)-5-(5-(4-(hydroxymethyl)-2-oxooxazolidin-3-yl)pyridin-2-yl)-1-isopropyl-4,5,6,7-tetrahydro-1H-pyrazolo[4,3-c]pyridine-3-carboxamide] | – | – | 2090 | 523 | –
6 | CNC(=O)c1ccc(CNC(=O)c2nn(C(C)C)c3c2CN(c2ccc(C(=O)N(C)C)cn2)CC3C(F)(F)F)cc1 (single isomer, unassigned) [Example 356, rel-(R or S)-5-(5-(dimethylcarbamoyl)pyridin-2-yl)-1-isopropyl-N-(4-(methylcarbamoyl)benzyl)-7-(trifluoromethyl)-4,5,6,7-tetrahydro-1H-pyrazolo[4,3-c]pyridine-3-carboxamide] | 246 | – | – | – | IC50 [1, 8]: 3310 nM
7 | CC(C)n1nc(C(=O)NCc2ccc(NC(=O)N(C)C)cc2)c2c1[C@@H](C)CN(c1ncc(C(=O)O)cn1)C2 [Example 498, (S)-2-(3-((4-(3,3-Dimethylureido)benzyl)carbamoyl)-1-isopropyl-7-methyl-1,4,6,7-tetrahydro-5H-pyrazolo[4,3-c]pyridin-5-yl)pyrimidine-5-carboxylic acid] | 133 | 3440 | – | – | –
8 | CC(C)n1nc(C(=O)NCc2ccc(NC(=O)N(C)CC3COC3)cc2)c2c1CCN(c1ccc(C(=O)N(C)C)cn1)C2 [Example 168, 5-(5-(dimethylcarbamoyl)pyridin-2-yl)-1-isopropyl-N-(4-(3-methyl-3-(oxetan-3-ylmethyl)ureido)benzyl)-4,5,6,7-tetrahydro-1H-pyrazolo[4,3-c]pyridine-3-carboxamide] | – | – | 111 | 24 | –
9 | CNC(=O)c1ccc(N2CCc3c(c(C(=O)NCc4ccc(NC(=O)N(C)C)cc4)nn3C(C)C)C2)nc1 [Example 135, N-(4-(3,3-dimethylureido)benzyl)-1-isopropyl-5-(5-(methylcarbamoyl)pyridin-2-yl)-4,5,6,7-tetrahydro-1H-pyrazolo[4,3-c]pyridine-3-carboxamide] | – | – | 1270 | 136 | –
10 | CC(C)n1nc(C(=O)NCc2ccc(NC(=O)N(C)C)cc2)c2c1CCN(c1ccc(C3CCCO3)cn1)C2 (single isomer, unassigned) [Example 361, rel-(R or S)-N-(4-(3,3-dimethylureido)benzyl)-1-isopropyl-5-(5-(tetrahydrofuran-2-yl)pyridin-2-yl)-4,5,6,7-tetrahydro-1H-pyrazolo[4,3-c]pyridine-3-carboxamide] | 158 | > 4080 | – | – | –
11 | CC1CCC(=O)N1c1ccc(N2CCc3c(c(C(=O)NCc4ccc(NC(=O)N(C)C)cc4)nn3C(C)C)C2)nc1 (centres unmarked) [Example 56, N-(4-(3,3-dimethylureido)benzyl)-1-isopropyl-5-(5-(2-methyl-5-oxopyrrolidin-1-yl)pyridin-2-yl)-4,5,6,7-tetrahydro-1H-pyrazolo[4,3-c]pyridine-3-carboxamide] | – | – | 369 | 13 | –
12 | C[C@@H]1CN(c2ccc(C(=O)N(C)C)cn2)Cc2c(C(=O)NCc3ccc(NC(=O)N(C)C)cc3)nn(CC(F)(F)F)c21 (single isomer, unassigned) [Example 550] | 11 | – | – | – | IC50 [1, 3]: 85 nM
13 | CCc1nc(C(=O)NCc2ccc(NC(=O)N(C)C)cc2)c2n1C(C)CN(c1ccc(C(=O)N(C)C)cc1)C2 (single isomer, unassigned) [Example 429, rel-(R or S)-7-(4-(dimethylcarbamoyl)phenyl)-N-(4-(3,3-dimethylureido)benzyl)-3-ethyl-5-methyl-5,6,7,8-tetrahydroimidazo[1,5-a]pyrazine-1-carboxamide] | 1 | – | – | – | IC50 [1, 8]: 6 nM
14 | CC(C)n1nc(C(=O)NCc2ccc(NC(=O)N3CCN(C)CC3)cc2F)c2c1[C@@H](C)CN(c1ccc(C(=O)N(C)C)cc1)C2 [Example 718, (S)-5-(4-(dimethylcarbamoyl)phenyl)-N-(2-fluoro-4-(4-methylpiperazine-1-carboxamido)benzyl)-1-isopropyl-7-methyl-4,5,6,7-tetrahydro-1H-pyrazolo[4,3-c]pyridine-3-carboxamide] | 1 | – | – | – | IC50 ([1]; Homo sapiens, 48 h, human whole blood, IL-13 10 ng/mL): 18 nM
15 | CC(C)c1nc(C(=O)NCc2ccc(NC(=O)N(C)C)cc2)c2n1[C@@H](C)CN(c1ccc(C(=O)N(C)C)cc1)C2 (racemic) [Example 537, rac-(R)-7-(4-(Dimethylcarbamoyl)phenyl)-N-(4-(3,3-dimethylureido)benzyl)-3-isopropyl-5-methyl-5,6,7,8-tetrahydroimidazo[1,5-a]pyrazine-1-carboxamide] | 1 | – | – | – | IC50 [1, 3]: 10 nM
16 | C[C@@H]1Cc2c(c(C(=O)NCc3ccc(NC(=O)N(C)C)cc3)nn2C)CN1c1ccc(-c2nccn2C)cn1 (single isomer, unassigned) [Example 122] | – | – | 900 | 24 | –
17 | CC(C)n1nc(C(=O)NCc2ccc(NC(=O)N(C)C)cc2)c2c1C[C@@H](C)N(c1ccc(C(=O)N(C)C)cn1)C2 [Example 114, (R)-5-(5-(dimethylcarbamoyl)pyridin-2-yl)-N-(4-(3,3-dimethylureido)benzyl)-1-isopropyl-6-methyl-4,5,6,7-tetrahydro-1H-pyrazolo[4,3-c]pyridine-3-carboxamide] | – | – | 211 | 20 | –
18 | CCn1nc(C(=O)NCc2ccc(NC(=O)N(C)C)cc2)c2c1CCN(c1ncc(C(=O)N(C)C)cn1)[C@@H]2C (single isomer, unassigned) [Example 511] | 6 | 29 | – | – | –
19 | CC1CN(c2ccc(C(=O)N(C)C)cn2)Cc2c1nn1c2C(=O)N(Cc2ccc(NC(=O)N(C)C)cc2)CC1 (single isomer, unassigned) [Example 281, rel-(R or S)-6-(9-(4-(3,3-dimethylureido)benzyl)-4-methyl-10-oxo-3,4,7,8,9,10-hexahydropyrido[4′,3′:3,4]pyrazolo[1,5-alpyrazin-2(1H)-yl)-N,N-dimethylnicotinamide] | 17 | – | – | – | IC50 [1, 8]: 212 nM
